Non-standard residues stand in square brackets, D forms with d. Residues, ends and D or L forms follow the SMILES beside them. Nspe = C[C@H](NCC(=O)O)c1ccccc1; NhArg = N=C(N)NCCCCNCC(=O)O; Nlys = NCCCCNCC(=O)O
Tests used:
[1] = Analytical RP-HPLC elution as relative measure of molecular hydrophobicity; assay type: physicochemical; settings: percentage of acetonitrile at elution, analytic RP-HPLC, C18 column, linear water/acetonitrile (0.1% trifluoroacetic acid) gradient 5%-95% acetonitrile over 30 min
Source text: Peptoids were synthesized using an ABI 433A peptide synthesizer (Applied Biosystems, Inc.) on Rink amide MBHA resin (EMD Biosciences, Gibbstown, NJ) using the submonomer protocol, [24]. Briefly, the amine on the nascent chain is bromoacetylated or chloroacetylated followed by SN2 displacement of bromide or chloride by a primary amine to form the side chain. Resin-bound peptoids were then exposed to a mixture of trifluoroacetic acid (TFA): triisopropylsilane: water (95∶2.5∶2.5, volume ratio) for 10 minutes to cleave peptoids from the resin. Crude peptoids were purified by reversed-phase high performance liquid chromatography (RP-HPLC) (Waters Corporation) using a C18 column and a linear acetonitrile/water gradient. A final purity >95% as measured by analytical RP-HPLC (Waters Corporation) was achieved, and the identity of each peptoid was confirmed using electrospray ionization mass spectrometry (ESI/MS). Pexiganan was synthesized by standard Fmoc chemistry on an ABI 433A peptide synthesizer ([…]). Unless indicated otherwise, all reagents were purchased from Sigma Aldrich (St. Louis, MO). Among the submonomers used, Nspe was derived from (S)-N-(1-phenylethyl)amine; Npm from benzylamine ([…]); NHis from histamine (2-[4-imidazolyl]ethylamine); NLeu from isobutylamine; NLys from N-tert-butoxycarbonyl-1,4-butanediamine (CNH Technologies, MA). Guanidinylation of NLys was carried out according to the reported procedure. When NHis was used in the peptoid sequence, chloroacetic acid was used. 5(6)-Carboxyfluorescein was used to label the N-terminus of peptoid 1 [28].
Peptoids were utilized herein as a peptidomimetic scaffold to capture the cationic, amphipathic nature of anticancer peptides, as well as to improve molecular stability and to increase chemical diversity. The design of anticancer peptoids were derived from previous antimicrobial peptoids and were further optimized hererin to improve the activity and selectivity of peptoids against anionic membranes, [24], [25]. […] Several novel variants were designed based on peptoid 1 but with different charges, amphipathicity, length, and helicity to change their activity or selectivity. The sequences of these variants, the solvent composition at RP-HPLC elution as a relative measure of molecular hydrophobicity, molecular net charges and their charge-to-length ratio are summarized in Table 1. […] Pexiganan, a clinically-relevant peptide analog of magainin 2 which was developed for topical treatment for diabetic foot infection, and LL-37, the only known human cathelicidin which is a non-selective antimicrobial peptide, were also tested for comparison.

[2] = system: MCF-7 (breast cancer); experiment: MTS cell viability assay, MCF-7; assay type: cell-based
Method: (§1) MCF-7, MCF-7/TxT50 and OVCAR-3 (available in ATCC) were kindly provided by Professor Branimir Sikic's lab at Stanford University, and were cultured in McCoy's 5A media (GIBCO) with 10% FBS and antibiotics. Primary dermal fibroblasts were gifts from Lifeline Cell Technology and were cultured <6 passages according to the protocol Lifeline provides. All the cells were cultured in cell incubators (Thermo Scientific) at 37°C with 5% CO2.
(§2) This assay is a colorimetric method for determining the number of viable cells in proliferation. Aliquots of 100 µl media containing 1×10^4 cells were distributed into each well of a 96-well plate (BD Falcon). The following day, when cell density reaches about ∼40% confluency, the cell media were removed and replaced with serial dilutions of peptoid stocks in culturing media. For peptoid dilutions, peptoid stocks were initially diluted in media at 100 µM and then diluted by half in series using a multichannel pipette, and maintained in 100 µl media for each concentration with triple repeats. After peptoid solutions were transferred onto cells in 96-well plates, cells were incubated at 37°C for certain time periods. Then 20 µl of the CellTiter 96 Aqueous Non-Radioactive cell proliferation assay (Promega) reagent which contains a tetrazolium compound, [3-(4,5-dimethylthiazol-2-yl)-5-(3-carboxymethoxyphenyl)-2-(4-sulfophenyl)-2H-tetrazolium, inner salt; MTS(a)], was added to each well and cells were further incubated for 2 h to metabolize. The absorbance of formazan products were measured at 490 nm in a microplate reader (Molecular Devices). Percentage of cell viability = (A -A testblank)/(A control -A blank)×100, where A is the absorbance of the test well and A control the average absorbance of wells with cells not treated with peptoids. A testblank (media, MTS, and diluted peptoids) and A blank (media and MTS) were background absorbances measured in the absence of cells.
(§3) The activity and selectivity of these peptoids against cancer cells were evaluated in vitro. Their cytotoxicity was tested in three cancer cell lines, MCF-7 (human breast cancer), LNCaP (human prostate cancer), and OVCAR-3 (human ovarian cancer). To estimate the selectivity of these peptoids in vitro, hemolytic activities of some peptoids were cited from previously published work (Table 2 **column), and the MRC-5 cell line (human fibroblasts derived from fetal lung tissues) and primary dermal fibroblasts were also tested as normal cell controls. Briefly, cells were treated with peptoids diluted in culturing media for certain time periods, and then cell viability was measured via MTS assays.

[3] = system: LNCaP (prostate cancer); experiment: MTS cell viability assay, LNCaP; assay type: cell-based
Method: as §2, §3

[4] = system: OVCAR3 (ovarian cancer); experiment: MTS cell viability assay, OVCAR3; assay type: cell-based
Method: as §1, §2, §3

[5] = system: MRC-5 (fetal lung fibroblast); experiment: MTS cell viability assay, MRC-5; assay type: cell-based
Method: as §1, §2, §3

[6] = system: Primary dermal fibroblast; experiment: MTS cell viability assay, primary dermal fibroblasts; assay type: cell-based
Method: as §1, §2, §3

[7] = system: human red blood cells; settings: cited from earlier work
Source text: Table 2 Peptoid Cytotoxicity in cancer cell lines and control cells. | column: HC10 (µM) ** || The chain length is believed to influence not only the activity but also modes of action of cationic, amphipathic peptides, [34]. […] Thus we limited the chain length of peptoids to 13 residues at most, and studied 1 9mer which has the same charge-to-length ratio (CTLR) as peptoid ...

[8] = MTS assay, 72 h treatment, media with 10% FBS, max 100 µM tested, triple repeats
[9] = normal cell control, MTS assay, 72 h treatment, media with 10% FBS, max 100 µM tested

Compound: C[C@@H](c1ccccc1)N(CC(N)=O)C(=O)CN(C(=O)CN(CCCCN)C(=O)CN(C(=O)CN(C(=O)CN(CCCCN)C(=O)CN(C(=O)CN(C(=O)CNCCCCN)[C@@H](C)c1ccccc1)[C@@H](C)c1ccccc1)[C@@H](C)c1ccccc1)[C@@H](C)c1ccccc1)[C@@H](C)c1ccccc1 [1 9mer, H-(NLys-Nspe-Nspe)3-NH2] (H-[Nlys][Nspe][Nspe][Nlys][Nspe][Nspe][Nlys][Nspe][Nspe]-NH2)
- HPLC elution [1]: 60 % ACN
- LC50 MCF-7 (breast cancer) ([2]; 72 h): 30 µM
- LC50 LNCaP (prostate cancer) ([3]; 72 h): 27 µM
- LC50 OVCAR3 (ovarian cancer) ([4]; 72 h): 34 µM
- LC50 MRC-5 (fetal lung fibroblast) ([5]; 72 h): 40 µM
- LC50 Primary dermal fibroblast ([6]; 72 h): 32 µM
- HC10 [7]: 150 µM

Compound: C[C@@H](c1ccccc1)N(CC(N)=O)C(=O)CN(CCCCN)C(=O)CN(C(=O)CN(C(=O)CN(CCCCN)C(=O)CN(C(=O)CN(C(=O)CN(CCCCN)C(=O)CN(C(=O)CN(C(=O)CNCCCCN)[C@@H](C)c1ccccc1)[C@@H](C)c1ccccc1)[C@@H](C)c1ccccc1)[C@@H](C)c1ccccc1)[C@@H](C)c1ccccc1)[C@@H](C)c1ccccc1 [1 11mer, H-(NLys-Nspe-Nspe)3-NLys-Nspe-NH2] (H-[Nlys][Nspe][Nspe][Nlys][Nspe][Nspe][Nlys][Nspe][Nspe][Nlys][Nspe]-NH2)
- HPLC elution [1]: 63.5 % ACN
- LC50 MCF-7 (breast cancer) ([2]; 72 h): 11 µM
- LC50 LNCaP (prostate cancer) ([3]; 72 h): 10 µM
- LC50 OVCAR3 (ovarian cancer) ([4]; 72 h): 10 µM
- LC50 MRC-5 (fetal lung fibroblast) ([5]; 72 h): 24 µM
- LC50 Primary dermal fibroblast ([6]; 72 h): 19 µM
- HC10 [7]: 103 µM

Compound: CC(C)CN(CC(N)=O)C(=O)CN(CCCCN)C(=O)CN(CC(C)C)C(=O)CN(CC(C)C)C(=O)CN(CCCCN)C(=O)CN(CC(C)C)C(=O)CN(CC(C)C)C(=O)CN(CCCCN)C(=O)CN(CC(C)C)C(=O)CN(CC(C)C)C(=O)CNCCCCN [1 11mer-NLeu, H-(NLys-NLeu-NLeu)3-NLys-NLeu-NH2]
- HPLC elution [1]: 51 % ACN
- LC50 MCF-7 (breast cancer) ([2]; 72 h): >100 µM
- LC50 LNCaP (prostate cancer) ([3]; 72 h): >100 µM
- LC50 OVCAR3 (ovarian cancer) ([4]; 72 h): >100 µM
- LC50 MRC-5 (fetal lung fibroblast) ([5]; 72 h): >100 µM
- LC50 Primary dermal fibroblast ([6]; 72 h): >100 µM

Compound: C[C@@H](c1ccccc1)N(CC(N)=O)C(=O)CN(Cc1ccccc1)C(=O)CN(CCCCN)C(=O)CN(Cc1ccccc1)C(=O)CN(Cc1ccccc1)C(=O)CN(CCCCN)C(=O)CN(Cc1ccccc1)C(=O)CN(Cc1ccccc1)C(=O)CN(CCCCN)C(=O)CN(Cc1ccccc1)C(=O)CN(C(=O)CNCCCCN)[C@@H](C)c1ccccc1 [1 achiral-Nspe2, 12, H-NLys-Nspe-Npm-(NLys-Npm-Npm)2-NLys-Npm-Nspe-NH2]
- HPLC elution [1]: 62 % ACN
- LC50 MCF-7 (breast cancer) ([2]; 72 h): 12 µM
- LC50 LNCaP (prostate cancer) ([3]; 72 h): 10 µM
- LC50 OVCAR3 (ovarian cancer) ([4]; 72 h): 16 µM
- LC50 MRC-5 (fetal lung fibroblast) ([5]; 72 h): 21 µM
- LC50 Primary dermal fibroblast ([6]; 72 h): 32 µM

Compound: CC[C@H](C)[C@H](NC(=O)[C@H](CCCCN)NC(=O)[C@H](CCC(=O)O)NC(=O)[C@H](CCCCN)NC(=O)[C@H](CO)NC(=O)[C@H](CCCCN)NC(=O)[C@H](CCCNC(=N)N)NC(=O)[C@H](Cc1ccccc1)NC(=O)[C@H](Cc1ccccc1)NC(=O)[C@H](CC(=O)O)NC(=O)CNC(=O)[C@H](CC(C)C)NC(=O)[C@@H](N)CC(C)C)C(=O)NCC(=O)N[C@@H](CCCCN)C(=O)N[C@@H](CCC(=O)O)C(=O)N[C@@H](Cc1ccccc1)C(=O)N[C@@H](CCCCN)C(=O)N[C@@H](CCCNC(=N)N)C(=O)N[C@H](C(=O)N[C@H](C(=O)N[C@@H](CCC(N)=O)C(=O)N[C@@H](CCCNC(=N)N)C(=O)N[C@H](C(=O)N[C@@H](CCCCN)C(=O)N[C@@H](CC(=O)O)C(=O)N[C@@H](Cc1ccccc1)C(=O)N[C@@H](CC(C)C)C(=O)N[C@@H](CCCNC(=N)N)C(=O)N[C@@H](CC(N)=O)C(=O)N[C@@H](CC(C)C)C(=O)N[C@H](C(=O)N1CCC[C@H]1C(=O)N[C@@H](CCCNC(=N)N)C(=O)N[C@H](C(=O)N[C@@H](CCC(=O)O)C(=O)N[C@@H](CO)C(=O)O)[C@@H](C)O)C(C)C)[C@@H](C)CC)C(C)C)[C@@H](C)CC [LL 37, LL-37, reference compound]
- LC50 MCF-7 (breast cancer) ([2]; 72 h): 21 µM
- LC50 LNCaP (prostate cancer) ([3]; 72 h): 27 µM
- LC50 OVCAR3 (ovarian cancer) ([4]; 72 h): 24 µM
- LC50 MRC-5 (fetal lung fibroblast) ([5]; 72 h): 24 µM
- LC50 Primary dermal fibroblast ([6]; 72 h): 26 µM

Compound: C[C@@H](c1ccccc1)N(CC(N)=O)C(=O)CN(C(=O)CN(CCCCNC(=N)N)C(=O)CN(C(=O)CN(C(=O)CN(CCCCNC(=N)N)C(=O)CN(C(=O)CN(C(=O)CN(CCCCNC(=N)N)C(=O)CN(C(=O)CN(C(=O)CNCCCCNC(=N)N)[C@@H](C)c1ccccc1)[C@@H](C)c1ccccc1)[C@@H](C)c1ccccc1)[C@@H](C)c1ccccc1)[C@@H](C)c1ccccc1)[C@@H](C)c1ccccc1)[C@@H](C)c1ccccc1 [Peptoid 1-Nbtg, H-(Nbtg-Nspe-Nspe)4-NH2] (H-[NhArg][Nspe][Nspe][NhArg][Nspe][Nspe][NhArg][Nspe][Nspe][NhArg][Nspe][Nspe]-NH2)
- LC50 MCF-7 (breast cancer) ([2]; 72 h): 5 µM
- LC50 LNCaP (prostate cancer) ([3]; 72 h): 8 µM
- LC50 OVCAR3 (ovarian cancer) ([4]; 72 h): 8 µM
- LC50 MRC-5 (fetal lung fibroblast) ([5]; 72 h): 10 µM
- LC50 Primary dermal fibroblast ([6]; 72 h): 8 µM

Compound: CC[C@H](C)[C@H](NC(=O)CN)C(=O)NCC(=O)N[C@@H](CCCCN)C(=O)N[C@@H](Cc1ccccc1)C(=O)N[C@@H](CC(C)C)C(=O)N[C@@H](CCCCN)C(=O)N[C@@H](CCCCN)C(=O)N[C@@H](C)C(=O)N[C@@H](CCCCN)C(=O)N[C@@H](CCCCN)C(=O)N[C@@H](Cc1ccccc1)C(=O)NCC(=O)N[C@@H](CCCCN)C(=O)N[C@@H](C)C(=O)N[C@@H](Cc1ccccc1)C(=O)N[C@H](C(=O)N[C@@H](CCCCN)C(=O)N[C@H](C(=O)N[C@@H](CC(C)C)C(=O)N[C@@H](CCCCN)C(=O)N[C@@H](CCCCN)C(N)=O)[C@@H](C)CC)C(C)C [Pexiganan, reference compound] (H-GIGKFLKKAKKFGKAFVKILKK-NH2)
- LC50 MCF-7 (breast cancer) [2, 8]: 8 µM
- LC50 LNCaP (prostate cancer) [3, 8]: 6 µM
- LC50 OVCAR3 (ovarian cancer) [4, 8]: 13 µM
- LC50 MRC-5 (fetal lung fibroblast) [5, 9]: 21 µM
- LC50 Primary dermal fibroblast [6, 9]: 19 µM
- HC10 [7]: 70 µM

Compound: H-(NLys-Nspe-Nspe)5-NH2 [peptoid 1 15mer, reference compound]
- hemolytic activity [7]: substantially higher hemolytic activity

Reference: paper PMC3938723, “Learning from Host-Defense Peptides: Cationic, Amphipathic Peptoids with Potent Anticancer Activity” (PLoS ONE, 2014)
